Values of other authors in patent US6310180A, “Method for synthesis of proteins” (Vanderbilt University, priority 1995, dated 2001).
Square brackets hold non-standard residues; d marks the D form. Peptide text beside a SMILES is read from it. Sta = CC(C)C[C@H](N)[C@@H](O)CC(=O)O

Target: HIV-1 protease (Human immunodeficiency virus type 1 group M subtype B, UniProt P03369)
Details: aspartic protease inhibitor "has been shown to inhibit the HIV-1 protease"; added to the ligation solution to prevent autoproteolysis

Question: Which Ki does the source give for `CC(=O)N[C@H](C(=O)N[C@H](C(=O)N[C@@H](CC(C)C)[C@@H](O)CC(=O)N[C@@H](C)C(=O)N[C@@H](CC(C)C)[C@@H](O)CC(=O)O)C(C)C)C(C)C` [acetyl-pepstatin] (Ac-VV[Sta]A[Sta]-OH) here?
Answer: The Ki was 20 mM.
